Test results published in patent US12281116B2, “HTT modulators for treating Huntington's disease” (CHDI Foundation, Inc., priority 2021, dated 2025).

Test system: tHTT (total HTT protein)
Experiment: Time-resolved FRET (HTRF) assay: Q48-Huntingtin and total-Huntingtin detection in GEN020 hESC lysates
Type: cell-based
Settings: tHTT activity; human embryonic stem cells GEN020 (mutant 48 Q repeat allele); test compounds 48 hours; read-out: HTT Lowering Activity (HTRF)
Method: Time-resolved FRET assay: Q48-Huntingtin and total-Huntington detection Detection of endogenous HTT protein in cell lysates was performed using a protocol adapted from Weiss et al. See Weiss A et al. (2009). Single-step detection of mutant huntingtin in animal and human tissues: a bioassay for Huntington's disease. Anal. Biochem. 395(1): 8-15.
The multiplex assay was performed in human embryonic stem cells (GEN020 hESCs with mutant 48 Q repeat allele) which have been derived by Genea Biocells from human blastocysts of HD donors. Bradley C K et al. (2011). Derivation of Huntington's disease-affected human embryonic stem cell lines, Stem Cells Dev. 2011 March; 20(3):495-502. Cells were plated into 384-well collagen coated plates (10,000 cells per well) and left to adhere for 24 hours, test compounds were then added for 48 hours (37° C., 5% CO2), cells were then lysed, and the lysate was transferred to a black 384-well assay plate.
The assay plate included a combination of HTRF labelled monoclonal antibodies added to recognize discreet areas of the HTT protein, the Tb “donor” antibody (2B7-Tb: 0.2 ng/well) recognizes a sequence at the N-terminus of the protein, an Alexa488 “acceptor 1” antibody (MW1-Alexa488: 30 ng/well) recognizes an area in the polyQ region, whereas a d2 “acceptor 2” antibody (MAB2166-d2: 6 ng/well) recognizes a sequence beyond the polyQ region. These detection reagents were incubated with the cell lysate at room temperature for 4-6 hours before having their fluorescence quantified at 615 nm (donor) and 535 nm and 665 nm (acceptor 1 and 2 respectively). The donor/acceptor ratio between these signals indicated the relative quantities of mHTT and tHTT.
Results for various compounds described herein are provided in the Tables below. tHTT activity in this assay is categorized as 10-20 μM (−); 1-10 μM (+); 0.5-1 μM (++); 0.1-0.5 μM (+++); <0.1 μM (++++).

SMILES: Cn1cc2cc(NC(=O)c3cnc(N4CC[C@@H](NC5CC5)C4)cn3)c(OC3CCOCC3)cc2n1 [Example 2, (R)-5-(3-(cyclopropylamino)pyrrolidin-1-yl)-N-(2-methyl-6-((tetrahydro-2H-pyran-4-yl)oxy)-2H-indazol-5-yl)pyrazine-2-carboxamide]
- IC50: 500 to 1000 nM

SMILES: Cc1nc2c(F)cc(NC(=O)c3cnc(N4CC(CNC(C)C)C4)cn3)cc2o1 [Example 12, N-(4-fluoro-2-methylbenzo[d]oxazol-6-yl)-5-(3-((isopropylamino)methyl)azetidin-1-yl)pyrazine-2-carboxamide]
- IC50: 100 to 500 nM

SMILES: Cc1cn2cc(NC(=O)c3cnc(N4CC[C@@H](NC5=NCCN5)C4)cn3)cc(F)c2n1 [Example 20, (R)-5-(3-((4,5-dihydro-1H-imidazol-2-yl)amino)pyrrolidin-1-yl)-N-(8-fluoro-2-methylimidazo[1,2-a]pyridin-6-yl)pyrazine-2-carboxamide]
- IC50: 100 to 500 nM

SMILES: Cc1cn2cc(NC(=O)c3cnc(N4CC(CNC5CC5)CC4=O)cn3)cc(F)c2n1 (single isomer, unassigned) [Example 40, (R*)-5-(4-((cyclopropylamino)methyl)-2-oxopyrrolidin-1-yl)-N-(8-fluoro-2-methylimidazo[1,2-a]pyridin-6-yl)pyrazine-2-carboxamide]
- IC50: 100 to 500 nM

SMILES: C#CCOc1cc2nn(C)cc2cc1NC(=O)c1cnc(N2CC[C@@H](NC)C2)cn1 [Example 4, (R)-N-(2-methyl-6-(prop-2-yn-1-yloxy)-2H-indazol-5-yl)-5-(3-(methylamino)pyrrolidin-1-yl)pyrazine-2-carboxamide]
- IC50: < 100 nM

SMILES: Cn1cc2cc(NC(=O)c3cnc(N4CC[C@@H](NC5CC5)C4)cn3)c(OC(F)F)cc2n1 [Example 18]
- IC50: 100 to 500 nM

SMILES: Cc1cc2cc(NC(=O)c3cnc(N4CC[C@@H](CNC5CC5)C4)cn3)cc(Cl)n2n1 [Example 16]
- IC50: 500 to 1000 nM

SMILES: CN[C@@H]1CCN(c2cnc(C(=O)Nc3cc4cn(C)nc4cc3OCc3ccccc3)cn2)C1 [Example 8, (R)-N-(6-(benzyloxy)-2-methyl-2H-indazol-5-yl)-5-(3-(methylamino)pyrrolidin-1-yl)pyrazine-2-carboxamide]
- IC50: < 100 nM

SMILES: C#CCOc1cc2nn(C)cc2cc1NC(=O)c1cnc(N2CC[C@@H](NC3CC3)C2)cn1 [Example 5, (R)-5-(3-(cyclopropylamino)pyrrolidin-1-yl)-N-(2-methyl-6-(prop-2-yn-1-yloxy)-2H-indazol-5-yl)pyrazine-2-carboxamide]
- IC50: 100 to 500 nM

SMILES: Cc1cn2cc(NC(=O)c3cnc(N4CCC(N(C)C)C4=O)cn3)cc(F)c2n1 (single isomer, unassigned) [Example 38, (S*)-5-(3-(dimethylamino)-2-oxopyrrolidin-1-yl)-N-(8-fluoro-2-methylimidazo[1,2-a]pyridin-6-yl)pyrazine-2-carboxamide]
- IC50: 500 to 1000 nM

SMILES: Cc1cn2cc(NC(=O)c3cnc(N4CC5C(N)C5C4)cn3)cc(F)c2n1 (stereo not drawn) [Example 24, 5-(6-amino-3-azabicyclo[3.1.0]hexan-3-yl)-N-(8-fluoro-2-methyl-imidazo[1,2-a]pyridin-6-yl)pyrazine-2-carboxamide]
- IC50: < 100 nM

SMILES: Cc1cn2cc(NC(=O)c3cnc(N4CCC(N(C)C)C4=O)cn3)cc(F)c2n1 (single isomer, unassigned) [Example 39, (R*)-5-(3-(dimethylamino)-2-oxopyrrolidin-1-yl)-N-(8-fluoro-2-methylimidazo[1,2-a]pyridin-6-yl)pyrazine-2-carboxamide]
- IC50: 500 to 1000 nM

SMILES: CN[C@@H]1CCN(c2cnc(C(=O)Nc3cc(Cl)n4nc(C)cc4c3)cn2)C1 [Example 15]
- IC50: < 100 nM

SMILES: Cc1cn2cc(NC(=O)c3cnc(N4CC5CC5(N)C4)cn3)cc(F)c2n1 (stereo not drawn) [Example 28]
- IC50: 100 to 500 nM

SMILES: Cc1cn2cc(NC(=O)c3cnc(N4CC5C[C@]5(N)C4)cn3)cc(F)c2n1 (stereo partly drawn) [Example 36, 5-((1R)-1-amino-3-azabicyclo[3.1.0]hexan-3-yl)-N-(8-fluoro-2-methylimidazo[1,2-a]pyridin-6-yl)pyrazine-2-carboxamide]
- IC50: 100 to 500 nM

SMILES: C#CCOc1cc2nn(C)cc2cc1NC(=O)c1cnc(N2CC3(CCCN(C)C3)C2)cn1 [Example 11, N-(2-methyl-6-(prop-2-yn-1-yloxy)-2H-indazol-5-yl)-5-(6-methyl-2,6-diazaspiro[3.5]nonan-2-yl)pyrazine-2-carboxamide]
- IC50: 100 to 500 nM

SMILES: CC#CCOc1cc2nn(C)cc2cc1NC(=O)c1cnc(N2CC[C@@H](NC3CC3)C2)cn1 [Example 3, (R)-N-(6-(but-2-yn-1-yloxy)-2-methyl-2H-indazol-5-yl)-5-(3-(cyclopropylamino)pyrrolidin-1-yl)pyrazine-2-carboxamide]
- IC50: 100 to 500 nM

SMILES: Cn1cc2cc(NC(=O)c3cnc(N4CC[C@@H](NC5CC5)C4)cn3)c(OCC#N)cc2n1 [Example 7, (R)-N-(6-(cyanomethoxy)-2-methyl-2H-indazol-5-yl)-5-(3-(cyclopropylamino)pyrrolidin-1-yl)pyrazine-2-carboxamide]
- IC50: 100 to 500 nM
